# Data: ChEMBL document CHEMBL5325467, “Discovery of novel hypoxia-activated, nitroimidazole constructed multi-target kinase inhibitors on the basis of AZD9291 for the treatment of human lung cancer” (Bioorg Med Chem, 2023)
# How the values were obtained:
# [1] = Ratio of IC50 for antiproliferative activity against human HCC827 cells harboring EGFR del19 mutant under normoxia condition to IC50 for antiproliferative activity against human HCC827 cells harboring EGFR del19 mutant under hypoxia condition; format: functional
# [2] = Ratio of IC50 for antiproliferative activity against human NCI-H1975 cells harboring EGFR L858R/T790M mutant under normoxia condition to IC50 for antiproliferative activity against human NCI-H1975 cells harboring EGFR L858R/T790M mutant under hypoxia condition; format: functional
# NCI-H1975 [3] = assay: Antiproliferative activity against human NCI-H1975 cells harboring EGFR L858R/T790M mutant assessed as inhibition of cell growth incubated for 72 hrs under normoxia condition by SRB assay; format: functional, cell-based; conditions: NCI-H1975, 72 h
# [4] = biological target: Epidermal growth factor receptor (Homo sapiens, UniProt P00533); assay: Inhibition of wild type EGFR (unknown origin) by mobility shift assay
# HCC827 [5] = assay: Antiproliferative activity against human HCC827 cells harboring EGFR del19 mutant assessed as inhibition of cell growth incubated for 72 hrs under hypoxia condition by SRB assay; format: functional, cell-based; conditions: HCC827, 72 h
# NCI-H1975 [6] = assay: Antiproliferative activity against human NCI-H1975 cells harboring EGFR L858R/T790M mutant assessed as inhibition of cell growth incubated for 72 hrs under hypoxia condition by SRB assay; format: functional, cell-based; conditions: NCI-H1975, 72 h
# HCC827 [7] = assay: Antiproliferative activity against human HCC827 cells harboring EGFR del19 mutant assessed as inhibition of cell growth incubated for 72 hrs under normoxia condition by SRB assay; format: functional, cell-based; conditions: HCC827, 72 h
# [8] = biological target: Epidermal growth factor receptor (Homo sapiens, UniProt P00533, L858R/T790M); assay: Inhibition of EGFR L858R/T790M mutant (unknown origin) by mobility shift assay
# [9] = Selectivity index, ratio of IC50 for inhibition of wild type EGFR (unknown origin) to IC50 for inhibition of EGFR L858R/T790M mutant (unknown origin)
# Epidermal growth factor receptor (Homo sapiens, UniProt P00533, L858R/T790M), sequence (P00533 25-1210 T790M/L858R limits assumed): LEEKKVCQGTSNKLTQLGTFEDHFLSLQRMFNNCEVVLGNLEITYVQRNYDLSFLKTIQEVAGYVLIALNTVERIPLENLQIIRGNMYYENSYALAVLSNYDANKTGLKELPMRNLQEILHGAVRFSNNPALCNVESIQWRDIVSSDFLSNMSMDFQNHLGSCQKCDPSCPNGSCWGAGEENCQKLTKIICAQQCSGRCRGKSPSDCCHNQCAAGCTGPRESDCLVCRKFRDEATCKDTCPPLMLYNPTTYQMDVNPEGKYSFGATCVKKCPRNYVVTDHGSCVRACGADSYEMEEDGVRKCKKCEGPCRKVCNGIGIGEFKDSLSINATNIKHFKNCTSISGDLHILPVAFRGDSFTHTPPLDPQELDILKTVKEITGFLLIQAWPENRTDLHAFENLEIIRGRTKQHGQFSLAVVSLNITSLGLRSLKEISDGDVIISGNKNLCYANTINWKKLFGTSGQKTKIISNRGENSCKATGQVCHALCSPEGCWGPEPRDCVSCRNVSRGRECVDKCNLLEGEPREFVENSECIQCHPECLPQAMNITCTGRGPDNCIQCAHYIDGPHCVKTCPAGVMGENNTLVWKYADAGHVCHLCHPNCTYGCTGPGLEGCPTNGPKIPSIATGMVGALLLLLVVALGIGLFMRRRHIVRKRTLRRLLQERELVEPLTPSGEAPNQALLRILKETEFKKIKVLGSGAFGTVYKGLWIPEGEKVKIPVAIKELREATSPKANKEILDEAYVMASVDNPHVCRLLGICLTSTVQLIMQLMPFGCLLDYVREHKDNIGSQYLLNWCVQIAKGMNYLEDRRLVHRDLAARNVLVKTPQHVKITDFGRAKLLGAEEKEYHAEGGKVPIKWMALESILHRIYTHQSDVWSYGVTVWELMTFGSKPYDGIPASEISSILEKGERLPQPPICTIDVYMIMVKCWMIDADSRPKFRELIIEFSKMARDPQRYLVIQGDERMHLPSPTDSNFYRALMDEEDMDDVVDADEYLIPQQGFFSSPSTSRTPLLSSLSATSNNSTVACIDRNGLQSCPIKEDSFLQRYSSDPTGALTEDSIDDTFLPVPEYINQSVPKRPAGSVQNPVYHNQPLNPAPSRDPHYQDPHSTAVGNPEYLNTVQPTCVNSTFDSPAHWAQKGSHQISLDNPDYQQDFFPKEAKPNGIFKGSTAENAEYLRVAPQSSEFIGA
# Epidermal growth factor receptor (Homo sapiens, UniProt P00533), sequence (P00533 whole entry): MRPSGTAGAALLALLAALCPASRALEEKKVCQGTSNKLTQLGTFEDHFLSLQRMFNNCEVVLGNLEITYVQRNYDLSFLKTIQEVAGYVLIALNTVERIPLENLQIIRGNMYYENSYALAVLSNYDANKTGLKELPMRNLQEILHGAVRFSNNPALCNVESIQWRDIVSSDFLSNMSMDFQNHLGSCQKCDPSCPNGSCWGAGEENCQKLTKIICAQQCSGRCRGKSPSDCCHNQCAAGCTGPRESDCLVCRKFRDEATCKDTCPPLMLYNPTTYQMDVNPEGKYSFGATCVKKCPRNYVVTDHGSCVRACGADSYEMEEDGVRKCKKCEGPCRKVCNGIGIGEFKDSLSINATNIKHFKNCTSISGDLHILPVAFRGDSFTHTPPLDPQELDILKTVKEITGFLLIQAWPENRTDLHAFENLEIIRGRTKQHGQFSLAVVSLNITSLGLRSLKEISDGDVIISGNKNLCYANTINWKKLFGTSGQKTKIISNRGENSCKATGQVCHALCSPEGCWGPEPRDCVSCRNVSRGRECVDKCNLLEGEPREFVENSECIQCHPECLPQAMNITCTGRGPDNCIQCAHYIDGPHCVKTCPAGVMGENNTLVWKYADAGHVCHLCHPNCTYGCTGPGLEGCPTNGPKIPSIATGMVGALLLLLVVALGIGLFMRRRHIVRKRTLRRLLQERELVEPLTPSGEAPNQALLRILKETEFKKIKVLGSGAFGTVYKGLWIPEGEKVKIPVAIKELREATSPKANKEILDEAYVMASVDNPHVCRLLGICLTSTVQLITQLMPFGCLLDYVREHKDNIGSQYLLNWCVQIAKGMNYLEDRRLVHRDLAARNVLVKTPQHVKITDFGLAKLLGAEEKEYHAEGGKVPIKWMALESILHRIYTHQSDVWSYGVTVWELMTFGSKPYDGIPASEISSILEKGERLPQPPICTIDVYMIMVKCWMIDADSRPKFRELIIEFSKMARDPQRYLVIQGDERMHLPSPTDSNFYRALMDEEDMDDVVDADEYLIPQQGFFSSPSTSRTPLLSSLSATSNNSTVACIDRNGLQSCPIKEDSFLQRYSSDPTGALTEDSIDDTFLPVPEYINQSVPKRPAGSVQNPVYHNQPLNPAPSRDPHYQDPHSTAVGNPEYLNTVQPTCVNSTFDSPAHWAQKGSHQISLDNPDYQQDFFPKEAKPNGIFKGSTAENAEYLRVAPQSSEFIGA
Compound,IC50 [4],IC50 [8],Ratio IC50 [9],other results
Cn1cc(-c2ccnc(Nc3cc(OCCOCCn4ccnc4[N+](=O)[O-])ccc3F)n2)c2ccccc21,7660 nM,199 nM,–,Ratio IC50 [1]: 5.11; Ratio IC50 [2]: 4.08; IC50 (NCI-H1975 [3]): 31 nM; IC50 (HCC827 [5]): 6.28 nM; IC50 (NCI-H1975 [6]): 7.59 nM; IC50 (HCC827 [7]): 32.1 nM
Cn1cc(-c2ccnc(Nc3ccc(OCCOCCn4ccnc4[N+](=O)[O-])cc3)n2)c2ccccc21,9370 nM,512 nM,18.3,–
Cn1cc(-c2ccnc(Nc3ccc(OCCCCn4cnc([N+](=O)[O-])c4)c(F)c3)n2)c2ccccc21,–,829 nM,–,–
C=CC(=O)Nc1cc(Nc2nccc(-c3cn(C)c4ccccc34)n2)c(OC)cc1N(C)CCN(C)C [OSIMERTINIB],–,–,–,IC50 (NCI-H1975 [3]): […]; IC50 (HCC827 [5]): 32.3 nM; IC50 (NCI-H1975 [6]): […]; IC50 (HCC827 [7]): 33.7 nM
Cn1cc(-c2ccnc(Nc3cccc(C(=O)NCCOCCn4ccnc4[N+](=O)[O-])c3)n2)c2ccccc21,–,818 nM,–,–
CC(=O)c1ccc(Nc2nccc(-c3cn(C)c4ccccc34)n2)cc1OCCOCCn1ccnc1[N+](=O)[O-],7440 nM,262 nM,28.4,–
Cn1cc(-c2ccnc(Nc3cccc(COCCOCCn4ccnc4[N+](=O)[O-])c3)n2)c2ccccc21,–,4030 nM,–,–
Cn1cc(-c2ccnc(Nc3cccc(OCCCCn4cnc([N+](=O)[O-])c4)c3)n2)c2ccccc21,1880 nM,233 nM,8.08,–
